Experimental data taken from publication PMC12333940, “A prometabolite strategy inhibits cardiometabolic disease in an ApoE^–/– murine model of atherosclerosis” (JCI Insight, 2025).
Several values for one entry are separate records, joined by “and”; a condition that tells them apart may be missing. Equal values may be shown once.

Legend:
ApoE^–/– mice on an HFD [1] = assay: CD68 immunohistochemistry and Stary plaque severity grading; format: in vivo, mouse; set-up: STARY Score Average: scale not given here; settings: for STARY Score Average: average per mouse, experiments 1 and 2, grades per the 1st table; for CD68+ IHC Quantification CD68 % Lesion / CD68+ IHC Quantification CD68+ (um2) / CD68+ IHC Quantification Intima % Lesion / CD68+ IHC Quantification Intima (um2) / CD68+ IHC Quantification Necrotic Core % Lesion / CD68+ IHC Quantification Necrotic Core (um2): individual mice
Experimental: (§1) For 6 weeks, mice were freely administered water, water containing 150 mM SerBut, or water containing an equimolar amount of NaBut. SerBut water was pH adjusted using 10 M NaOH to a final pH of 7.4. […] In concert, mice were fed an HFD with 42% from fat and 0.2% total cholesterol (Envigo, TD-88137) ad libitum. After 6 weeks, mice were euthanized. The lMLNs, ILNs, spleen, heart, and aorta were harvested and processed for flow cytometry analysis ([67]). The liver was harvested and part was homogenized in tissue protein extraction reagent buffer (Invitrogen, 78510) supplemented with protease inhibitor mini tablets (Thermo Fisher Scientific, PIA32955) for Western blotting and qPCR. The remaining liver was fixed with 4% paraformaldehyde and embedded in paraffin for histological analysis.
Frozen aortic root sections were fixed in Zamboni fixative for 10 minutes. After TBS wash, slides were loaded on Leica Bond RX automated stainer. Anti–mouse CD68 antibody (BioLegend, catalog 137001, clone FA-11; 1:4000) was applied to tissue sections for 60 minutes of incubation at room temperature. Following TBS wash, tissue sections were incubated with rabbit anti-rat IgG (Thermo Fisher Scientific, 31219) 30 minutes. The antigen-antibody binding was detected using Polymer-HRP (Leica Biosystems, Bond Polymer Refine Detection kit, DS9800). The slides were coverglassed by autocoverslipper (Tissue-Tek Glas g2). Stary plaque severity grading was done as previously described ([42]). Briefly, each individual mouse was scored if there were at least 2 sections showing all 3 leaflets of the aortic valve that could reasonably be scored. Each leaflet was scored individually per aortic valve and subsequently averaged per section. All sections were averaged per mouse for a final score. Sections were graded blinded. Table 1 explains the scoring scale. Quantitative analysis of plaque features was performed using a classifier in QuPath (v.05.0).

[2] = Biodistribution of free butyrate after oral gavage, ApoE–/– mice on HFD
Experimental: Samples were prepared and derivatized as described previously ([28]). Stock solutions were prepared in water/acetonitrile (ACN) (1:1 v/v): 3-nitrophenylhydrazine (NPH), and 1-ethyl-3-(3-dimethylaminopropyl)carbodiimide (EDC) (in 1% pyridine). The internal standard, 4-methylvaleric acid, was added. Samples were mixed with NPH and EDC stocks at a 1:1:1 volume ratio. The mixture was heated in a heating block at 60°C for 30 minutes. Samples were filtered through 0.22 μm filters and stored at 4°C before analysis.
An Agilent 6460 Triple Quad MS-MS was used to detect the derivatized butyrate. Both derivatized butyrate-NPH and 4-methylvaleric-NPH were detected in negative mode. Column: Thermo Fisher Scientific C18 4.6 × 50 mm, 1.8 μm particle size, at room temperature. Mobile phase A: water with 0.1% v/v formic acid. Mobile phase B: ACN with 0.1% v/v formic acid. Injection volume: 5.0 μL. Flow rate: 0.5 mL/min. Gradient of solvent: 15% mobile phase B at 0.0 minutes; 100% mobile phase B at 3.5 minutes; 100% mobile phase B at 6.0 minutes; 15% mobile phase B at 6.5 minutes. The MS conditions were optimized using pure butyrate-NPH or 4-methylvaleric-NPH at 1 mM. The fragment voltage was set to 135 V, and the collision energy was 18 V. Multiple reaction monitoring (MRM) of 222 → 137 was assigned to butyrate, and MRM of 250 → 137 was assigned to 4-methylvaleric acid as the internal standard. The ratio between MRM of butyrate and 4-methylvaleric acid was used to quantify butyrate concentration.
Three hours after administration, mice were anesthetized under isoflurane, and blood was collected via submandibular vein into EDTA-coated tubes. The tubes were centrifuged, and plasma was collected and frozen at –80°C. […] Organs, including liver, MLNs, ILNs, spleen, lung, heart, aorta, small intestine, and large intestine were collected and then transferred to –80°C until further processing. To extract butyrate from plasma or organs, a 1:1 (v/v) ACN/water solution was used. Plasma was mixed 1:1 with the ACN/water solution and centrifuged to remove denatured proteins. Organs were weighed, transferred to Lysing Matrix D tubes (MP Biomedicals), and combined with the 1:1 v/v ACN/water solution. Samples were then lysed using a FastPrep-24 5G homogenizer (MP Biomedicals) and centrifuged. The supernatants were collected for butyrate measurement by LC-MS/MS. The final butyrate content in each organ was normalized by organ weight.

ApoE^–/– mice on an HFD [3] = assay: qPCR of liver lipid metabolism genes; format: in vivo, mouse; set-up: srebf1 / srebf2 / fasn / acly / scd1 / acaca / cpt1a: scale not given here; settings: for acaca / acly / cpt1a / fasn / scd1 / srebf1 / srebf2: qPCR, individual mice
Experimental: We then asked whether SerBut’s effects on disease pathology and inflammation may be partially mediated by changes in lipid metabolism by measuring lipogenic and lipid oxidation gene expression by qPCR after treatment for 6 weeks (Supplemental Figure 10, F–L).
as §1

ApoE^–/– mice on an HFD [4] = assay: Inflammatory cytokines in plasma (LEGENDPlex); format: in vivo, mouse; set-up: Plasma LegendPlex IFNy / Plasma LegendPlex IL-1B / Plasma LegendPlex IL-6: unit not given here; settings: for plasma IL-1β / IL-6 and IFN-γ in plasma: 6 weeks; for IL-6 and IFN-γ in plasma: compared with control groups; for Plasma LegendPlex IFNy / Plasma LegendPlex IL-1B / Plasma LegendPlex IL-6: individual mice
Experimental: SerBut water was pH adjusted using 10 M NaOH to a final pH of 7.4. […] After 6 weeks, mice were euthanized. […] The liver was harvested and part was homogenized in tissue protein extraction reagent buffer (Invitrogen, 78510) supplemented with protease inhibitor mini tablets (Thermo Fisher Scientific, PIA32955) for Western blotting and qPCR. […] Blood chemical analysis was performed on an Alfa […] Chemistry Analyzer. Reagent kits from Alfa Wasserman were used according to manufacturer's instructions to analyze plasma: lipase (catalog SA1045), HDL-C (catalog SA2038, LDL-C (catalog SA1040), AST (catalog SA1053), ALT (catalog SA1052). A LEGENDPlex was utilized to analyze the concentrations of inflammatory cytokines (BioLegend).

Row | SMILES | STARY Score Average (ApoE^–/– mice on an HFD [1]) | CD68+ IHC Quantification CD68 % Lesion (ApoE^–/– mice on an HFD [1]) | CD68+ IHC Quantification CD68+ (um2) (ApoE^–/– mice on an HFD [1]) | CD68+ IHC Quantification Intima % Lesion (ApoE^–/– mice on an HFD [1]) | CD68+ IHC Quantification Intima (um2) (ApoE^–/– mice on an HFD [1]) | CD68+ IHC Quantification Necrotic Core % Lesion (ApoE^–/– mice on an HFD [1]) | CD68+ IHC Quantification Necrotic Core (um2) (ApoE^–/– mice on an HFD [1]) | acaca (ApoE^–/– mice on an HFD [3]) | acly (ApoE^–/– mice on an HFD [3]) | cpt1a (ApoE^–/– mice on an HFD [3]) | fasn (ApoE^–/– mice on an HFD [3]) | scd1 (ApoE^–/– mice on an HFD [3]) | srebf1 (ApoE^–/– mice on an HFD [3]) | srebf2 (ApoE^–/– mice on an HFD [3]) | plasma IL-1β (ApoE^–/– mice on an HFD [4]) | IL-6 and IFN-γ in plasma (ApoE^–/– mice on an HFD [4]) | Plasma LegendPlex IFNy (ApoE^–/– mice on an HFD [4]) | Plasma LegendPlex IL-1B (ApoE^–/– mice on an HFD [4]) | Plasma LegendPlex IL-6 (ApoE^–/– mice on an HFD [4]) | further results
1 | CCCC(=O)[O-].[Na+] [NaBut, sodium butyrate, reference compound] | 4 and 4.278 and 4.083 and 3.889 and 4.367 and 4.595 and 4.611 and 4.667 | 65.946 % Lesion and 80.0675 % Lesion and 77.46 % Lesion and 69.3112 % Lesion and 58.965 % Lesion and 57.8207 % Lesion and 65.2988 % Lesion | 195963 um2 and 152245 um2 and 221322 um2 and 227819 um2 and 178448 um2 and 177016 um2 and 268099 um2 | 12.0227 % Lesion and 7.77 % Lesion and 10.3458 % Lesion and 13.4964 % Lesion and 17.8935 % Lesion and 30.3544 % Lesion and 12.0651 % Lesion | 36578.9 um2 and 15233.4 um2 and 30544.5 um2 and 45695.4 um2 and 53110.1 um2 and 102496 um2 and 50318.2 um2 | 21.7224 % Lesion and 11.9211 % Lesion and 11.8215 % Lesion and 16.7081 % Lesion and 22.5501 % Lesion and 9.461 % Lesion and 22.3112 % Lesion | 64440.8 um2 and 22667.5 um2 and 33872.5 um2 and 54918.5 um2 and 69955.9 um2 and 28166.5 um2 and 89527.4 um2 | 0.754 and 1.434 and 0.565 and 0.348 | 1.514 and 3.195 and 3.181 and 0.636 | 0.594 and 0.912 and 0.54 and 0.529 | 1.21 and 3.882 and 0.92 and 0.454 | 1.215 and 2.79 and 1.889 and 0.696 | 0.816 and 1.204 and 0.406 and 0.79 | 0.731 and 1.208 and 0.837 and 0.717 | trend toward reduction | did not | 43.19 and 71.91 and 156.97 and 1.54 and 133.26 and 33.33 and 25.52 and 29.92 and 11.45 | 1.73 and 1.26 and 132.12 and 0.34 and 3.85 and 0.46 and 0.64 | 1.6 and 2.29 and 7.3 and 0.92 and 0.99 and 1.54 | free butyrate, Plasma ([2]; 3 hours after single gavage of 272 mM butyrate): 4.575 µM
2 | CCCC(=O)OC[C@H](N)C(=O)O [SerBut, O-butyryl-L-serine] | 4.31 and 4.429 and 3.833 and 3.944 and 4.333 and 4 and 3.75 and 3.583 | 69.8799 % Lesion and 66.2246 % Lesion and 57.396 % Lesion and 61.0623 % Lesion and 37.3547 % Lesion and 58.9062 % Lesion and 54.5852 % Lesion | 83533.6 um2 and 151477 um2 and 57839.2 um2 and 114375 um2 and 26376.1 um2 and 132530 um2 and 122451 um2 | 20.6972 % Lesion and 12.9871 % Lesion and 31.9636 % Lesion and 8.967 % Lesion and 42.8946 % Lesion and 25.2201 % Lesion and 37.0252 % Lesion | 25307.3 um2 and 13303.3 um2 and 35976.1 um2 and 33683.8 um2 and 30916.8 um2 and 58237.6 um2 and 82003.5 um2 | 8.949 % Lesion and 20.1213 % Lesion and 8.471 % Lesion and 28.3702 % Lesion and 18.86 % Lesion and 14.738 % Lesion and 7.7245 % Lesion | 10697.9 um2 and 47552.4 um2 and 8399.84 um2 and 53169.3 um2 and 13317 um2 and 32727 um2 and 17678.5 um2 | 0.188 and 0.284 and 0.192 and 0.406 and 0.341 | 0.526 and 0.622 and 0.832 and 0.324 and 0.471 | 0.348 and 0.381 and 0.409 and 0.745 and 0.465 | 0.409 and 0.404 and 0.103 and 0.193 and 0.312 | 1.631 and 1.826 and 1.024 and 0.978 and 0.7 | 0.853 and 0.562 and 0.47 and 0.606 and 0.321 | 0.511 and 0.812 and 0.428 and 0.961 and 0.372 | trend toward reduction | reduced | 1.54 and 21.65 and 44.82 and 28.44 and 36.42 | 1.73 and 1.26 and 21.47 and 0.83 and 1.61 and 1.04 and 1.97 and 2.89 and 4.7 | 1.18 and 0.95 and 0.92 and 0.99 and 2.99 | plaque severity score, CD68^+ stained area and necrotic core area (ApoE^–/– mice on an HFD [1]; 6 weeks, compared with water-treated mice): significant reduction; free butyrate in liver, ILNs, kidney, spleen, lung and plasma ([2]; 3 hours after gavage): significant increases; free butyrate in the MLNs ([2]; 3 hours after gavage): trending increases; free butyrate in the heart and aorta ([2]; 3 hours after gavage, compared with both NaBut-treated and PBS-treated mice): significantly increased free butyrate; liver expression of Acly (ApoE^–/– mice on an HFD [3]; 6 weeks, compared with NaBut-treated mice but not water-treated groups): significantly reduced expression; liver expression of Cpt1a (ApoE^–/– mice on an HFD [3]; 6 weeks, compared with water-treated groups, P = 0.06): strong trend toward reduction
